pIC50: −log10 of the molar value. Like-named read-outs stand apart in the source and are kept apart here.
What was measured:
[1] = molecular target: purified human recombinant ATM (ataxia telangiectasia mutated), full length (Homo sapiens (Human), UniProt Q13315); test: ATM kinase assay - determination of ATM inhibition (IC50 ATM), TR-FRET; format: biochemical
Procedure, shortened: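 Full-length enzyme, expressed in a mammalian cell line, pre-incubated 15 min with inhibitor in 25 mM HEPES pH 8.0, 10 mM Mg(CH3COO)2, 1 mM MnCl2, 0,1% BSA, 0,01% Brij 35, 5 mM DTT. Full-length cmyc-p53 (Sf21-expressed) and ATP then added, 30-35 min at 22° C. EDTA stop; p53 S15 phosphorylation read by TR-FRET antibodies.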

[2] = tested on: phosphorylation of CHK2 (phospho-Thr68) in HCT116 cells; test: Cellular pCHK2 assay: bleomycin-induced phosphorylation of CHK2 (phospho-Thr68), immunofluorescence high-content analysis; format: cell-based, human; settings: Homo sapiens, HCT-116, 4 h, read-out: IC50 (pCHK2)
From the text: For the identification of substances which inhibit the phosphorylation of the protein kinase CHK2 at the amino acid threonine 68, an immunofluorescence-based “high content” analysis assay was used in HCT116 cells.
In vitro cell-based immunofluorescence assay for the identification of inhibitors of bleomycin-induced phosphorylation of CHK2 (phospho-Thr68) in the human colon carcinoma cell line HCT116:
HCT116 cells are sown out in a defined cell density in 384-well plates in culture medium (DMEM high glucose, 2 mM GlutaMax, 1 mM Na pyruvate, 10% FCS) and incubated overnight at 37° C. and 10% of CO2. On the following day, the test substances are added in a defined concentration range (1 nM to 30 μM) in combination with 10 μM bleomycin, where the concentration of the solvent DMSO is kept constant at 0.5%. […] Parallel staining of DNA with propidium iodide enables determination of the cell count. The pCHK2 signal is detected using a high-content imager (Molecular Devices IMX Ultra) and automatic image analysis using the MetaXpress software belonging to the instrument. The number of cell nuclei which have a pCHK2 signal above a defined background is determined.

mTOR (human) = mTOR (human) (Homo sapiens (Human), UniProt P42345); test: mTOR (human) kinase assay, [γ-33P-ATP] filter assay; format: biochemical
Experimental: Furthermore, the effect, in particular inhibition, of other kinases and thus the selectivity of the compounds according to the invention can be determined with the aid of the following assay:
mTOR (human) was incubated with 50 mM HEPES pH 7.5, 1 mM EGTA, 0.01% Tween 20, 2 mg/ml of the substrate, 3 mM MnCl2 and [γ-^33P-ATP] (specific activity approximately 500 cpm/pmol, concentration as necessary). The reaction was initiated by addition of MgATP solution. After incubation at room temperature for 40 minutes, the reaction was stopped by addition of 3% phosphoric acid. 10 μl of the reaction solution were then transferred dropwise onto a P30 filtermat and washed three times for 5 min in 75 mM phosphoric acid and once in methanol, dried and evaluated by means of liquid scintillation counting.

PI3K p110α/p85α (human) = PI3K p110α/p85α (human) (Homo sapiens (Human), UniProt P42336); test: PI3K p110α/p85α (human), non-radioactive assay (HTRF); format: biochemical; settings: for pIC50: read-out: IC50 (PI3Kalpha); for ratio IC50 (ATM) vs PI3Kalpha, selectivity with respect to PI3Kalpha: as printed:
Experimental: PI3K p110α/p85α (Human), Non-radioactive Assay
(§1) PI3K p110α/p85α (human) was incubated in an assay buffer comprising 10 μM phosphati-dylinositol 4,5-bisphosphate and MgATP (concentration as necessary). The reaction was initiated by addition of MgATP solution. After incubation at room temperature for 40 minutes, the reaction was stopped by addition of a solution consisting of EDTA and biotinylated phosphatidylinositol 3,4,5-trisphosphate. Finally, the detection buffer, consisting of a europium-labelled anti-GST monoclonal antibody, a GST-labelled GRP1 PH domain and streptavidin allophycocyanin, was added. The plate was read out via homogeneous time-resolved fluorescence (HTRF) and the corresponding signals were evaluated via the formula HTRF=10000×(Em665nm/Em620nm).

PI3K p110δ/p85α (human) = PI3K p110δ/p85α (human) (Homo sapiens (Human), UniProt O00329); test: PI3K p110δ/p85α (human), non-radioactive assay (HTRF); format: biochemical; settings: for pIC50: read-out: IC50 (PI3Kdelta); for ratio IC50 (ATM) vs PI3Kdelta, selectivity with respect to PI3Kdelta: as printed:
Experimental: PI3K p110δ/p85α (Human), Non-radioactive Assay
as §1, with “p110δ/p85α” for “p110α/p85α”, “After an” for “After”, “incubation time of 30 min” for “incubation”, “temperature,” for “temperature for 40 minutes,”

PI3K (p120γ) (human) = PI3K (p120γ) (human) (Homo sapiens (Human), UniProt P48736); test: PI3K (p120γ) (human), non-radioactive assay (HTRF); format: biochemical; settings: for pIC50: read-out: IC50 (PI3Kgamma); for ratio IC50 (ATM) vs PI3Kgamma, selectivity with respect to PI3Kgamma: as printed:
Experimental: PI3K (p120γ) (Human), Non-radioactive Assay
as §1, with “(p120γ)” for “p110α/p85α”, “After an” for “After”, “incubation time of 30 min” for “incubation”, “temperature,” for “temperature for 40 minutes,”, “HTRF=10000×(Em665nm/Em620nm). • MgATP=magnesium 5′-O—[hydroxy({[(hydroxyphosphinato)oxy]phosphinato}oxy)phosphoryl]adenosine • MgCl2=magnesium dichloride • EGTA=ethylene glycol bis(aminoethyl ether) N,N,N′,N′-tetraacetic acid • Tween 20=polysorbate 20 Medicament/pharmaceutical Composition” for “HTRF=10000×(Em665nm/Em620nm).”

PI3K p110β/p85α (human) = PI3K p110β/p85α (human) (Homo sapiens (Human), UniProt P42338); test: PI3K p110β/p85α (human), non-radioactive assay (HTRF); format: biochemical; settings: IC50 (ATM) at least 2000 times higher compared with IC50 (PI3Kbeta)
Sequence of PI3K p110β/p85α (human) (P42338 whole entry): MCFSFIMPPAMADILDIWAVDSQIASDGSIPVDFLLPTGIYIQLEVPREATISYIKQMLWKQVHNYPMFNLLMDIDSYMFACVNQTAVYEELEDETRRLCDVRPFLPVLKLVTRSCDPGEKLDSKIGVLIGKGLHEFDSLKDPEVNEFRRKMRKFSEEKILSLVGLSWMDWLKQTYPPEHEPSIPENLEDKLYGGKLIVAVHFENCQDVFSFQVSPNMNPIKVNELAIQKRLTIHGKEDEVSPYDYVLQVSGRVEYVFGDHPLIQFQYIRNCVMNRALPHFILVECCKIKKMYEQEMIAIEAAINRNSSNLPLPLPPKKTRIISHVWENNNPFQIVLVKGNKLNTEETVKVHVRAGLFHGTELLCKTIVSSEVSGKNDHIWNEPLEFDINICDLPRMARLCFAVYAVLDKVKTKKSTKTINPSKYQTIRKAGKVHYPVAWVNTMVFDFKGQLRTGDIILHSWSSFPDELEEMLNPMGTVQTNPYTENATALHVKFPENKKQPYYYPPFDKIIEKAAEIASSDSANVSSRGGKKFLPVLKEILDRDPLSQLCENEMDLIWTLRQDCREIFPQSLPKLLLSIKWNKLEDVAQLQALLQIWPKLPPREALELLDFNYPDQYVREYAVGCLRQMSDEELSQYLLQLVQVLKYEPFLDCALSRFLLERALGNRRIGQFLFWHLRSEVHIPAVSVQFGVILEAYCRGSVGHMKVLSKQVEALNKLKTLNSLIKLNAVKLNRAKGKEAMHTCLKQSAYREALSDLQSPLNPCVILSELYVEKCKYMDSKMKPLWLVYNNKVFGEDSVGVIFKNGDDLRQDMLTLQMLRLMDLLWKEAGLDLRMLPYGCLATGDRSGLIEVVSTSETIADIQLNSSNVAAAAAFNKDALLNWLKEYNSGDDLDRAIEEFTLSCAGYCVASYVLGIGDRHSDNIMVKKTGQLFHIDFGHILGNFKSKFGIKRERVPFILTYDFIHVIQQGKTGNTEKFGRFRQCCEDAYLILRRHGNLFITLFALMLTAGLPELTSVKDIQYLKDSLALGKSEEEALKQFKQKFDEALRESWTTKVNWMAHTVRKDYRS
Sequence of PI3K p110β/p85α (human) (P27986 whole entry partner): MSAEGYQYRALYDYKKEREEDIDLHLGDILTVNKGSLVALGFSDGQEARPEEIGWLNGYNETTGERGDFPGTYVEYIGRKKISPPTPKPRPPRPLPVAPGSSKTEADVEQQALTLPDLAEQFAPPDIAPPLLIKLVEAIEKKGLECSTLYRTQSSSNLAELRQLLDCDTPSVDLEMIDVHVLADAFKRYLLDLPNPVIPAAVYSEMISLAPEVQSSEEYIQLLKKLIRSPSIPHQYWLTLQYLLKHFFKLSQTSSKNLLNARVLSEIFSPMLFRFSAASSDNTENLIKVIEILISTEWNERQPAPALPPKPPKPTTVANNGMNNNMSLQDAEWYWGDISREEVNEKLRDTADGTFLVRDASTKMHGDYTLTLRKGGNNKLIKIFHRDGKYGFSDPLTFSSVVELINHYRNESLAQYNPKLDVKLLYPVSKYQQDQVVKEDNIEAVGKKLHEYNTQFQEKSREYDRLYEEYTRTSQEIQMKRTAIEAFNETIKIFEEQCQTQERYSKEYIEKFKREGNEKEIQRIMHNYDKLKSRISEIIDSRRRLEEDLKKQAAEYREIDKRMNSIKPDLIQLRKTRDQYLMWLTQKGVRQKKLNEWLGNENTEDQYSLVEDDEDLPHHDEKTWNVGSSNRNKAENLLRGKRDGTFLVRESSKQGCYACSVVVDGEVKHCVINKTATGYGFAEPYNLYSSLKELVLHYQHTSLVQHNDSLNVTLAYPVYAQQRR
Experimental: PI3K p110β/p85α (Human), Non-radioactive Assay
as §1, with “p110β/p85α” for “p110α/p85α”, “After an” for “After”, “incubation time of 30 min” for “incubation”, “temperature,” for “temperature for 40 minutes,”

Sequence of PI3K p110α/p85α (human) (P42336 whole entry): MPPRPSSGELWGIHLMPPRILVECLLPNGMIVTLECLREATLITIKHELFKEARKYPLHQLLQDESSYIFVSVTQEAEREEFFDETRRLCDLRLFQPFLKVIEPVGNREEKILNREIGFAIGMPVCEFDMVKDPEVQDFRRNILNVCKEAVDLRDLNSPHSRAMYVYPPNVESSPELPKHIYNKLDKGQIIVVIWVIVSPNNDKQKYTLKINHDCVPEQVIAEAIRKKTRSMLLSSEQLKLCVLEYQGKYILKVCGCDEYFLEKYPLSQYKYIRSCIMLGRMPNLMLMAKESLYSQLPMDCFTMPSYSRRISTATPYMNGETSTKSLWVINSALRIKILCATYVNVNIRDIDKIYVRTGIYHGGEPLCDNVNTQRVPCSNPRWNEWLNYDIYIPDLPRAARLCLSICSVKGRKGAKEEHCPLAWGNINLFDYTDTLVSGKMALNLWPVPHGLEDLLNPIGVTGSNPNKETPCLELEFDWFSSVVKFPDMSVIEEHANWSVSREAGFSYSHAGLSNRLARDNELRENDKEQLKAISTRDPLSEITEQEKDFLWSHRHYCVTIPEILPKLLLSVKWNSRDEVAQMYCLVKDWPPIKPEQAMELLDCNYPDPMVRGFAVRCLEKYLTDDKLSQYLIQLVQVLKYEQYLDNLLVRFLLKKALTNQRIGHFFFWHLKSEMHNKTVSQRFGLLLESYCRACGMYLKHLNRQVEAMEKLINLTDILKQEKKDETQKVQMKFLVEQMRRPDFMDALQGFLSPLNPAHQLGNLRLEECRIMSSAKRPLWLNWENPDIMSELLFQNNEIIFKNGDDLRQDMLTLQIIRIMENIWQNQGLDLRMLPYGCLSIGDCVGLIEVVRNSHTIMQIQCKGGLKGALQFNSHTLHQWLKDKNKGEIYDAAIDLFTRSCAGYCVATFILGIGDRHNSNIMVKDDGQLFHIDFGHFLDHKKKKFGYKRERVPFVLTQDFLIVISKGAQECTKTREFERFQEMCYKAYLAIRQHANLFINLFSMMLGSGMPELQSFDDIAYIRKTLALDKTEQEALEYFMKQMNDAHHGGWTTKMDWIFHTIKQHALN
Sequence of PI3K p110α/p85α (human) (P27986 whole entry partner): as the sequence (P27986 whole entry partner) above
Sequence of PI3K p110δ/p85α (human) (O00329 whole entry): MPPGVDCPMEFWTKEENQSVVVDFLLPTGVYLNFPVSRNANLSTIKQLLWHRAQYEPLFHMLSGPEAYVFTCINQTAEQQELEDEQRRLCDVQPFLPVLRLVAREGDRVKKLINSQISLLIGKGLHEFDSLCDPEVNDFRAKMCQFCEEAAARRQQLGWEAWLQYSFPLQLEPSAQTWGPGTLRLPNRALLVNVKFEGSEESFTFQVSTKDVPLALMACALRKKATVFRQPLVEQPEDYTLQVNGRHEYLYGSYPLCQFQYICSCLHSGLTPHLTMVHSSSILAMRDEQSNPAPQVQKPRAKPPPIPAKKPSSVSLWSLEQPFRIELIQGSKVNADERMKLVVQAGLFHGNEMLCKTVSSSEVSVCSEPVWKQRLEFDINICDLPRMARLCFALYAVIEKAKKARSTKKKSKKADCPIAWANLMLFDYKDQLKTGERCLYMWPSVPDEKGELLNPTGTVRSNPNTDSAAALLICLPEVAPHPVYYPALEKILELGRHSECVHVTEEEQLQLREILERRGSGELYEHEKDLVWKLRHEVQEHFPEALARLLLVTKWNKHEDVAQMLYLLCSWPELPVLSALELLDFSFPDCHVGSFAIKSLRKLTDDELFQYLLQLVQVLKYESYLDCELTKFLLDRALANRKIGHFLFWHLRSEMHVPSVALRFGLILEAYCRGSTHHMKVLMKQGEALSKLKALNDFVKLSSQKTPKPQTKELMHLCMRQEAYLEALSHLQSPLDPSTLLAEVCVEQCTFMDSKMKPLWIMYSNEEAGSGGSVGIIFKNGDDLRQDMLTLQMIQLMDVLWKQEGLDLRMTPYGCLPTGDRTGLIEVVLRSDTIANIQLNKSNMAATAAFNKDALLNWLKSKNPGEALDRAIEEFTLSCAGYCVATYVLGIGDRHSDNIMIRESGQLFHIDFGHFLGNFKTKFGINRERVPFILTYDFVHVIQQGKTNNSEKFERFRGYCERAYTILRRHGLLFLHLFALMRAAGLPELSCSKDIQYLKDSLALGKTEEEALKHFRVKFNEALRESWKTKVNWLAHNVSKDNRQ
Sequence of PI3K p110δ/p85α (human) (P27986 whole entry partner): as the sequence (P27986 whole entry partner) above
Sequence of PI3K (p120γ) (human) (P48736 whole entry): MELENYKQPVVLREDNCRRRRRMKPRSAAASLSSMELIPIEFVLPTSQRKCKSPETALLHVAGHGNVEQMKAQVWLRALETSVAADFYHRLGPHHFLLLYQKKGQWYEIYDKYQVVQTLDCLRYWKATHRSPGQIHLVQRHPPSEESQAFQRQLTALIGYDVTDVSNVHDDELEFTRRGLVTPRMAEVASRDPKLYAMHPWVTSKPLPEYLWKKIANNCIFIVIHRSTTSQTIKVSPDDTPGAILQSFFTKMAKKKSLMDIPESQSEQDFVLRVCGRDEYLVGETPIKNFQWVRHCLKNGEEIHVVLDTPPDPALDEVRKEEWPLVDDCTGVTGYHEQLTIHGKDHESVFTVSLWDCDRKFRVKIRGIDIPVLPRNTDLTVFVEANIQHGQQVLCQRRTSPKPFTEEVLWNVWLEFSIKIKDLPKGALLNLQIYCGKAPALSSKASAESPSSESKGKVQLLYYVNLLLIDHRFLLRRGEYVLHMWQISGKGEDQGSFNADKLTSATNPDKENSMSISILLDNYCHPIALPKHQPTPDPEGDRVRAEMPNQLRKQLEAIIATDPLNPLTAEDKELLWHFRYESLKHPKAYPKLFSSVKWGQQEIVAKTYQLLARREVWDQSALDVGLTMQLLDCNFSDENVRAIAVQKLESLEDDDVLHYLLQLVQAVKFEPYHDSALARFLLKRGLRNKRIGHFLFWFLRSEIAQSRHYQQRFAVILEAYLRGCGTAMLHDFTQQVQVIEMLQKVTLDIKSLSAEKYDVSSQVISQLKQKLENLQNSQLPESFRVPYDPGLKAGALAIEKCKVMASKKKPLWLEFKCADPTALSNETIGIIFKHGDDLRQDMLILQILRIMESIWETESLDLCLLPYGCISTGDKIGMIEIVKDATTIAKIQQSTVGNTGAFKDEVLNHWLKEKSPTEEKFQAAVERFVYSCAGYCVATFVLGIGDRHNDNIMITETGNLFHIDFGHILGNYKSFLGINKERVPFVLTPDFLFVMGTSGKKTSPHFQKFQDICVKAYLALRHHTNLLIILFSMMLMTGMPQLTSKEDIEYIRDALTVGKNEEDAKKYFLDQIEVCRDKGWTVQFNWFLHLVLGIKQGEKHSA

Compound | pIC50 [1] | pIC50 ([1]; 10 μM ATP, substrate p53) | pIC50 [2] | pIC50 (mTOR (human)) | pIC50 (PI3K p110α/p85α (human)) | pIC50 (PI3K p110δ/p85α (human)) | pIC50 (PI3K (p120γ) (human)) | ratio IC50 (ATM) vs PI3Kalpha, selectivity with respect to PI3Kalpha (PI3K p110α/p85α (human)) | ratio IC50 (ATM) vs PI3Kdelta, selectivity with respect to PI3Kdelta (PI3K p110δ/p85α (human)) | ratio IC50 (ATM) vs PI3Kgamma, selectivity with respect to PI3Kgamma (PI3K (p120γ) (human)) | fold selectivity for ATM over PI3Kbeta (IC50 PI3Kbeta / IC50 ATM) (PI3K p110β/p85α (human))
COc1cc2ncc3c(c2cc1-c1cn[nH]c1)n(-c1ccncc1C)c(=O)n3C [Compound Example 19, 7-Methoxy-3-methyl-1-(3-methylpyridin-4-yl)-8-(1H-pyrazol-4-yl)-1,3-dihydro-imidazo[4,5-c]quinolin-2-one] | > 8.00 | > 8.00 | > 6.70 | < 5.30 | < 4.52 | < 4.52 | < 4.52 |  |  |  | 
COc1cc2ncc3c(c2cc1-c1cnn(C)c1)n(-c1c(F)cncc1F)c(=O)n3C [Compound Example 22, 1-(3,5-Difluoropyridin-4-yl)-7-methoxy-3-methyl-8-(1-methyl-1H-pyrazol-4-yl)-1,3-dihydroimidazo[4,5-c] quinolin-2-one] | > 9.00 | > 9.00 | > 6.70 | < 4.52 | < 4.52 | < 4.52 | < 4.52 |  |  |  | 
CCn1cc(-c2cc3c(cc2OC)ncc2c3n(-c3c(F)cncc3F)c(=O)n2C)cn1 [Compound Example 26, 1-(3,5-Difluoropyridin-4-yl)-8-(1-ethyl-1H-pyrazol-4-yl)-7-methoxy-3-methyl-1,3-dihydroimidazo[4,5-c] quinolin-2-one] | > 9.00 | > 9.00 | > 6.70 | < 4.52 | < 4.52 | < 4.52 | < 4.52 |  |  |  | 
COc1cc2ncc3c(c2cc1-c1cn[nH]c1)n(-c1ccncc1OC)c(=O)n3C [Compound Example 32, 7-Methoxy-1-(3-methoxy-pyridin-4-yl)-3-methyl-8-(1H-pyrazol-4-yl)-1,3-dihydroimidazo[4,5-c]-quinolin-2-one] | > 8.00 | > 8.00 | > 6.70 | < 5.00 | < 4.52 | < 4.52 | < 4.52 |  |  |  | 
COc1cc2ncc3c(c2cc1-c1cn(C)nc1C)n(-c1c(C)cncc1F)c(=O)n3C [Compound Example 39, 8-(1,3-Dimethyl-1H-pyrazol-4-yl)-1-(3-fluoro-5-methyl-pyridin-4-yl)-7-methoxy-3-methyl-1,3-dihydroimidazo-[4,5-c]quinolin-2-one] | > 9.00 | > 9.00 | 6.00 to 6.70 | < 4.52 | < 4.52 | < 4.52 | < 4.52 |  |  |  | 
CCc1cncc(C)c1-n1c(=O)n(C)c2cnc3cc(OC)c(-c4cnn(C)c4)cc3c21 [Compound Example 54, 1-(3-Ethyl-5-methylpyridin-4-yl)-7-methoxy-3-methyl-8-(1-methyl-1H-pyrazol-4-yl)-1,3-dihydroimidazo[4,5-c]-quinolin-2-one] | > 8.00 | > 8.00 | 6.00 to 6.70 | < 4.52 | < 4.52 | < 4.52 | < 4.52 |  |  |  | 
CCc1cncc(C)c1-n1c(=O)n(C)c2cnc3cc(OC)c(-c4cnn(CC)c4)cc3c21 [compound 61, 1-(3-Ethyl-5-methylpyridin-4-yl)-8-(1-ethyl-1H-pyrazol-4-yl)-7-methoxy-3-methyl-1,3-dihydroimidazo[4,5-c] quinolin-2-one] | > 8.00 | > 8.00 | 5.70 to 6.00 | < 4.52 | < 4.52 | < 4.52 |  |  |  |  | 
COc1cc2ncc3c(c2cc1-c1cnn(C)c1)n(-c1ncc(N2CCNCC2)cc1F)c(=O)n3C [compound 123, 1-(3-Fluoro-5-piperazin-1-yl-pyridin-2-yl)-7-methoxy-3-methyl-8-(1-methyl-1H-pyrazol-4-yl)-1,3-dihydro-imidazo[4,5-c]quinolin-2-one] |  | > 8.00 | 6.00 to 6.70 |  |  |  |  | at least 2000 times | at least 2000 times | at least 2000 times | 
CCc1cncc(F)c1-n1c(=O)n(C)c2cnc3cc(OC)c(-c4cn(C)nn4)cc3c21 [compound 126, 1-(3-Ethyl-5-fluoropyridin-4-yl)-7-methoxy-3-methyl-8-(1-methyl-1H-1,2,3-triazol-4-yl)-1,3-dihydroimidazo-[4,5-c] quinolin-2-one] |  | > 8.00 | 6.00 to 6.70 |  |  |  |  | at least 2000 times | at least 2000 times | at least 2000 times | 
COc1ccc(-c2cc3c(cc2OC)ncc2c3n(-c3cn(C)nc3F)c(=O)n2C)cn1 [compound 159, 1-(3-Fluoro-1-methyl-1H-pyrazol-4-yl)-7-methoxy-8-(6-methoxypyridin-3-yl)-3-methyl-1,3-dihydroimidazo-[4,5-c]quinolin-2-one] |  | > 8.00 | 5.70 to 6.00 |  |  |  |  |  |  |  | at least 2000 times
COc1cc2ncc3c(c2cc1-c1cnn(C)c1)n(-c1ncc(OC2CNC2)cc1F)c(=O)n3C [compound 205, 1-[5-(Azetidin-3-yloxy)-3-fluoropyridin-2-yl]-7-methoxy-3-methyl-8-(1-methyl-1H-pyrazol-4-yl)-1,3-dihydroimidazo[4,5-c]-quinolin-2-one] |  | > 9.00 | 6.00 to 6.70 |  |  |  |  | at least 2000 times | at least 2000 times | at least 2000 times | 

Reference: patent publication US10457677B2 (priority 2015, dated 2019)
